Earlier results on 1 molecule are cited in patent US11691145B2, “Platform and method for multi-variable screening” (Wisconsin Alumni Research Foundation, priority 2018, dated 2023).

For the data set, the system named is bacterial pathogens (infection). Particulars: phase 3 clinical trial.

For the molecule `CO/N=C(\C(=O)N[C@@H]1C(=O)N2C(C(=O)O)=C(COC(C)=O)CS[C@H]12)c1csc(N)n1` [cefotaxime], under “patients with a "resistant" antibiotic sensitivity test result”, the “patients who responded to the antibiotic therapy” value is 64%. For the same molecule, the “patients who would respond to the antibiotic therapy” value (patients with a "sensitive" antibiotic sensitivity test result, best case scenario) is listed as 93%.
